Source: patent publication US4436799A, “Photographic products and processes employing novel nondiffusible magenta dye-releasing compounds and precursors thereof” (priority 1983, dated 1984)
Where “and” joins values, the source holds several entries; their conditions need not be identical. Equal values may be shown once.

Experiments:
Assay type in all cases: physicochemical
[1] = Spectra of Ni-dye complexes in solution; conditions: 3:1 dioxane:water, pH 7, excess nickel ion; for Solution HBW of Ni-dye complex: half band width
From the text: The receiver was removed from the dye solution, washed in distilled water, placed in a pH 7.0 buffer solution and dried. Transmission spectra obtained on each sample of the mordanted dyes were normalized by computer to a density of 1.0. The characteristic wavelength of the dye, λ1/2 in nm, is the mean of the wavelength limits of the absorption envelope at half the maximum density. The HBW ("half band width") in nm is the range or distance between those limits. The dye solution spectrum in 3:1 dioxane:water at pH 7 in the presence of excess nickel ion is also given.

[2] = Transmission spectra of Ni-dye complexes on mordanted receiving element (Example 1); conditions: pH 7.0 buffer
[3] = Light stability (percent fade after HID xenon arc irradiation); conditions: 10 days HID 6000 W xenon arc, 50,000 lux, Wratten 2B filter, approx. 38° C.
From the text: An alternative receiving element was used with the premetallized dye-complexes. It comprised a poly(ethylene terephthalate) film support having thereon a layer of gelatin (1.1 g/m^2) and a mordant layer of poly(styrene-co-1-vinylimidazole-co-3-benzyl-1-vinylimidazolium chloride (50:40:10) (4.5 g/m^2) and gelatin (2.2 g/m^2).
The above receiving elements at pH 7 were then subjected to 10 days irradiation by a high intensity daylight (HID), 6000 W Xenon arc lamp, the sample receiving 50,000 lux through a Wratten 2B (ultraviolet) filter at approximately 38° C. and low humidity. The percent fade represents the loss in density at λmax after irradiation.

[4] = Dye diffusion, solution test; conditions: pH 13.4, 0.0025 M dye
From the text: (§1) The released dyes in Table I were also subjected to the conditions of two different dye diffusion tests. One, the "solution test" involved dissolving the dye in a viscous composition and transferring it through a receiving element which contains an opaque and reflecting layer in addition to the mordant layer. The other, a "gel pad test" involved imbibing the dye from solution into a thick gelatin layer, and then transferring it by direct lamination to the same receiving element which had been preswollen by soaking 5 minutes in a solution of […].
(§2) A transparent poly(ethylene terephthalate) film support coated with
(§3) (3) an overcoat layer of gelatin (4.3).
The viscous composition was prepared from 46.2 g potassium hydroxide and 54 g carboxymethylcellulose dissolved in 1200 ml water. […] Measurement of the rate of dye diffusion was commenced at the point at which half of the laminate had passed through the rollers. The appearance of dye on the mordant was measured at λmax as diffuse reflection density vs. time. The reflection density was converted to transmission density by computer with the aid of a mathematical relation derived from a previous calibration. A plot of transmission density, which is proportional to concentration vs. time, was derived; and the value of t-1/2 of dye transfer, the time in seconds required to obtain one-half of the maximum transmission density, calculated.

[5] = Dye diffusion, gel pad test; conditions: 0.1 M KOH, 1.3×10^-3 M dye
From the text: as §1, §2, §3
A donor element, containing a thick pad of deionized acid-processed gelatin (26 g/m^2) hardened with 2 percent bis(vinylsulfonylmethyl)ether, was imbibed with a solution of 0.1 M in potassium hydroxide and 1.3×10^-3 M in dye. The pad was soaked to full penetration, surface wiped, and then laminated in direct contact to the above receiving element which had been presoaked for 5 minutes at 0.1 M KOH. The t-1/2 of dye transfer was obtained as in the solution test.

[6] = Comparative spectra on mordanted strips (Example 2); conditions: 2:1 nickel complex on mordanted strip; for HBW: band width at half Dmax; for λmax: wavelength(s) at actual Dmax
From the text: The absorption envelope of each of the metallized dyes is described by (1) the wavelength(s), λmax, at the actual Dmax, (2) the λ1/2 which is the mean of the wavelength limits of the absorption envelope at half the maximum density, and (3) the halfband width (HBW) which is the band width at half the Dmax. A narrow HBW generally designates a purer hue.

[7] = Extinction in solution with Ni2+ (synthesis examples); conditions: 3:1 dioxane-pH 6 buffer + excess Ni^2+
Protocol: To a solution of 5.5 g (12.1 mmol) Compound E in 200 ml tetrahydrofuran, 100 ml pyridine and 4.8 g (37.2 mmol) N,N-diisopropylethylamine was added 3.0 g (3.17 mmol) 3,6-bis(1-p-t-butylphenylethyl)-2,5-bis(N-n-dodecylchloroformamidomethyl)benzoquinone (see U.S. Pat. No. 4,204,870, Col. 31). After stirring for 1 hour, an additional 2.5 g (2.64 mmol) of the acid chloride is added and the reaction stirred 28 hours at room temperature. The crude reaction mixture was concentrated to ca. 100 ml in vacuo at 40° C. and the residue was partitioned between ethyl acetate and 3 N HCl. The layers were separated, the organic phase washed with 3 N HCl (until washings were acidic), water and saturated sodium chloride solution. After drying (MgSO4) the organic phase was evaporated in vacuo and the residue recrystallized twice from 350-400 ml ethanol. Yield 7.5 g (72 percent) of yellow solid: ε^550 =13.0×10^4 (3:1 dioxane-pH 6 buffer+excess Ni^2+).
A solution of 5.0 g (31.4 mmol) quinoline-5,8-quinone [T. Urbanski and S. Krzyzanowski, Roczniki Chem., 27, 390 (1953); Chem. Abstr., 49, 1041b (1955)] in 50 ml ethyl alcohol and 100 ml tetrahydrofuran was chilled to <5° C. Concentrated HCl (1 ml) and a cold slurry of 10.0 g (31.8 mmol) 3-chloro-5-(m-hydroxyphenylsulfamoyl)-7-pyridylhydrazine in 100 ml ethyl alcohol/0.5 ml concentrated HCl were added in that order. […]

[8] = nickel sulfate/gelatin + poly(4-vinylpyridine)/gelatin mordant receiver, normalized to density 1.0
[9] = premetallized compound, alternative receiving element

| Molecule | Solution λ1/2 of Ni-dye complex [1] | Solution HBW of Ni-dye complex [1] | Mordant HBW of Ni-dye complex [2, 8] | Mordant λ1/2 of Ni-dye complex [2, 8] | % Fade (loss in density at λmax) ([3]; low humidity, pH 7) | Dye diffusion t1/2, Soln. [4] | Dye diffusion t1/2, Gel Pad [5] | λ1/2 [6] | HBW [6] | λmax [6] | other results |
| --- | --- | --- | --- | --- | --- | --- | --- | --- | --- | --- | --- |
| CN(c1cccc(O)c1)S(=O)(=O)c1cnc(N=Nc2ccc(O)c3cccnc23)c(Cl)c1 [F] | 543 nm | 68 nm | 66 nm | 546 nm | 0% | 69 s | – | – | – | – | – |
| 2:1 nickel complex of 2-(2-pyridylazo)-4-sulfamoyl-1-naphthol [Control Dye 1] | – | – | – | – | – | 49 s | 281 s | 537 nm | 101 nm | 553 nm and 567 nm | – |
| CN(c1ccccc1)c1ccc(N=Nc2ccc(S(N)(=O)=O)cn2)c([O-])c1.CN(c1ccccc1)c1ccc(N=Nc2ccc(S(N)(=O)=O)cn2)c([O-])c1.[Ni+2] [Control Dye 2, 2:1 nickel complex of 2-(5-sulfamoyl-2-pyridylazo)-5-(N-methylanilino)phenol] | – | – | – | – | – | 45 s | 265 s | 540 nm | 116 nm | 540 nm and 572 nm | – |
| CCCCCCCCCCCCN(CC1=C(C(C)c2ccc(C(C)(C)C)cc2)C(=O)C(CN(CCCCCCCCCCCC)C(=O)Oc2cccc(NS(=O)(=O)c3cnc(N=Nc4ccc(O)c5cccnc45)c(Cl)c3)c2)=C(C(C)c2ccc(C(C)(C)C)cc2)C1=O)C(=O)Oc1cccc(NS(=O)(=O)c2cnc(N=Nc3ccc(O)c4cccnc34)c(Cl)c2)c1 (centres unmarked) [Compound 3] | – | – | – | – | – | – | – | – | – | – | ε^550 [7]: 13.0×10^4 |
| CC(C)NS(=O)(=O)c1cnc(N=Nc2ccc(O)c3cc(C(=O)Nc4cccc(O)c4)c(Cl)nc23)c(Cl)c1 [H] | 548 nm | 63 nm | 72 nm | 549 nm | 7% | 49 s | – | – | – | – | – |
| O=S(=O)(Nc1ccccc1)c1cnc(N=Nc2ccc(O)c3cccnc23)c(Cl)c1 [G] | 542 nm | 65 nm | 70 nm | 548 nm | 0% | 81 s | – | – | – | – | – |
| COc1cc(S(=O)(=O)NC(C)(C)C)cnc1N=Nc1ccc(O)c2cccnc12 [Compound C] | 560 nm | 79 nm | 82 nm | 563 nm | – | 37 s | – | 545 nm | 67 nm | 560 nm | – |
| NS(=O)(=O)c1cnc(N=Nc2ccc(O)c3cccnc23)c(Cl)c1 [B] | 543 nm | 65 nm | 67 nm | 545 nm | 0% | 31 s | 108 s | – | – | – | Solution HBW of Ni-dye complex ([1]; listed as B'): 68 nm; Solution λ1/2 of Ni-dye complex ([1]; listed as B'): 544 nm; Mordant HBW of Ni-dye complex [2, 9]: 71 nm; Mordant λ1/2 of Ni-dye complex [2, 9]: 546 nm; % Fade (loss in density at λmax) [3, 9]: 4%; Dye diffusion t1/2, Gel Pad ([5]; listed as B'): 161 s |
| NS(=O)(=O)c1cccc(NS(=O)(=O)c2cnc(N=Nc3ccc(O)c4cccnc34)c(Cl)c2)c1 [A] | 548 nm | 70 nm | 76 nm | 553 nm | 2% | 41 s | 183 s | – | – | – | Solution HBW of Ni-dye complex ([1]; listed as A'): 68 nm; Solution λ1/2 of Ni-dye complex ([1]; listed as A'): 545 nm; Mordant HBW of Ni-dye complex [2, 9]: 85 nm; Mordant λ1/2 of Ni-dye complex [2, 9]: 555 nm; % Fade (loss in density at λmax) [3, 9]: 3%; Dye diffusion t1/2, Gel Pad ([5]; listed as A'): 235 s |
| COc1cc(S(=O)(=O)Nc2cccc(O)c2)cnc1N=Nc1ccc(O)c2cccnc12 [J] | 559 nm | 78 nm | 87 nm | 568 nm | 0% | 40 s | – | – | – | – | – |
| 2:1 nickel complex of 6-(2-carboxy-4-chlorphenylazo)-2,3-pyridinediol [Control Dye 3] | – | – | – | – | – | – | – | 545 nm | 86 nm | 555 nm | – |
| CC(C)NS(=O)(=O)c1cnc(N=Nc2ccc(O)c3cccnc23)c(Cl)c1 [Compound D] | 543 nm | 68 nm | 66 nm | 547 nm | – | 44 s | – | – | – | – | – |
